Numbers after ± are expanded uncertainties.
Legend:
[1] = Molar enthalpy of transition or fusion; details: Crystal; DSC
[2] = Crystal; DTA

## On1nnc2ccccc21 [1-benzotriazolol]
[1]
  Molar enthalpy of transition or fusion: 4.79 ± 0.217 kcal/mol
[2]
  Normal melting temperature: 151.11 ± 1.1 °C
